# Positions of bridges follow the written chain, without caps; N, C: chain ends. Non-standard residues stand in square brackets, D forms with d. No end group written: not given here. formula (I), R19:CH3 = not defined here; formula (I) = not defined here
# Columns and labels:
# [1] = system: VEGF protein in HaCat immortalized human keratinocyte cells; experiment: VEGF ELISA of culture supernatant, CoCl2-induced hypoxia vs normoxia, HaCat cells; assay type: cell-based; settings: peptide 10 μM, untreated ratio 1.15
# Text: (§1) MDA-MB-231 human breast cancer cell lines, HaCat immortalized human keratinocyte cell line and ARPE-19 human retinal pigment epithelia (RPE) cell line were purchased from American Type Culture Collection (ATCC, Manassas, VA, USA). Human cells were routinely authenticated using genotype profiling according to the ATCC guidelines. ARPE-19 cells were maintained in DMEM/F12 medium with HEPES supplemented with 10% fetal calf serum and antibiotics.
# (§2) MDA-MB-231 and HaCaT were maintained in DMEM medium with glucose 4.5gr/L, glutamine and pyruvate 2 mM and supplemented with 10% fetal calf serum and antibiotics.
# (§3) A fresh stock solution 0.4 M CoCl2 was prepared in water and added to the medium to obtain the concentration of 50 μM for MDA-MB-231, 200 μM for HaCaT and 300 μM for ARPE-19 cells. Cells were incubated with respective CoCl2 concentration for 24 hr to mimic hypoxic conditions.
# (§4) The VEGF-content of the supernatant of culture cells was measured by a VEGF-ELISA (Abcam; ab100662; Cambridge, UK) following the manufacturer's instructions. […]
# (§5) RT-PCR experiments were repeated at least 2 times. For VEGF assays, the mean±S.D of 3 determinations carried out in triplicate were calculated. Statistical significance was determined using Mann-Whitney tests for comparisons of means in a SPPS statistical software for Microsoft Windows, release 6.0 (Professional Statistic, Chicago, IL, USA). […]
# [2] = system: VEGF protein in MDA-MB-231 human breast cancer cells; experiment: VEGF ELISA of culture supernatant, CoCl2-induced hypoxia vs normoxia, MDA-MB-231 cells; assay type: cell-based; settings: peptide 10 μM, untreated ratio 1.72
# Text: as §1, §2, §3, §4, §5
# [3] = system: VEGF protein in ARPE-19 human retinal pigment epithelia cells; experiment: VEGF ELISA of culture supernatant, CoCl2-induced hypoxia vs normoxia, ARPE-19 cells; assay type: cell-based; settings: for Relative VEGF (Hypoxia/Normoxia) / Relative VEGF (Hipoxia/Normoxia): peptide 20 μM; for Relative VEGF (Hypoxia/Normoxia): 24 hr, 300 μM CoCl2, Table 2, untreated ratio 2.02; for Effect on VEGF expression under hypoxia conditions (in words): compared with untreated cells; for Relative VEGF (Hipoxia/Normoxia): Table 3, untreated ratio 1.87
# Method: as §1, §3
# The VEGF-content of the supernatant of culture cells was measured by a VEGF-ELISA (Abcam; ab100662; Cambridge, UK) following the manufacturer's instructions. The range of detection of the ELISA was between 8.23 pg/ml and 6,000 pg/ml. […] The same procedure was used in the presence of the peptides of the invention.
# (§6) RT-PCR experiments were repeated at least 2 times. For VEGF assays, the mean±S.D of 3 determinations carried out in triplicate were calculated. Statistical significance was determined using Mann-Whitney tests for comparisons of means in a SPPS statistical software for Microsoft Windows, release 6.0 (Professional Statistic, Chicago, IL, USA). Individual comparisons were made using Student's two-tailed, unpaired t-tests. Criterion for significance was P<0.05 for all comparisons.
# The objective of this study was to determine the regulation of VEGF by the peptides in hypoxia induced conditions in ARPE-19 cell lines. The VEGF protein (using ELISA kit) was calculated in untreated cells in hypoxia vs. normoxia and a threshold of activity was set. Then, cells were treated with a solution of the corresponding peptide of the invention at 20 μM dissolved in cell culture medium alone (normoxia condition) or in the presence of CoCl2 (hypoxia conditions) and the ratio of VEGF protein amount was calculated. The peptides showing a VEGFhyp/VEGFnorm ratio higher than the ratio in untreated cells were considered as inducers of VEGF protein, while peptides providing a VEGFhyp/VEGFnorm ratio lower than the ratio in untreated cells were considered as reducers of VEGF protein, as reported in table 2.
# [4] = system: CD31 staining (blood vessels) in MDA-MB-231 tumours; experiment: Angiogenesis reduction in vivo: CD31 immunohistochemistry of MDA-MB-231 breast tumour xenografts; settings: MDA-MB-231 xenograft in athymic mice, s.c. 2x week, vs vehicle
# Method: MDA-MB-231 cells were inoculated (2.5×10^6 cells/animal) in 100 μl of DMEM into the mammary fat pad of athymic mice. When tumours reached a volume of 100 mm3, animals were divided in groups and treated 2× week by s.c. administration with vehicle (2% Tween-20 in 0.9% NaCl sterile, control group) and 2× week by s.c. administration with SEQ ID NO:17 (treated group). At sacrifice, tumours were collected, weighed and formalin-fixed (24 h). Formalin-fixed tumours were processed for paraffin-embedded tissue blocks, which were sent for analysis to the Dept. Bioquimica y Biologic Molecular A, Facultad de Veterinaria, Universidad de Murcia.
# Hematoxylin, eosin, diaminobenzidine tetrahydrochloride and hydrogen peroxide were obtained from Merck (Madrid, Spain). The antibody mouse monoclonal anti-CD31 was obtained from Novus.
# Tumours washed in PBS, fixed in 10% formalin and embedded in paraffin.
# Haematoxylin and eosin (H&E) staining was performed on serial sections of paraffin embedded tissues. For immunohistochemistry, paraffin sections were deparaffinized and subjected to antigen retrieval in sodium citrate buffer (pH 6.0). Tissue endogenous peroxidase was inactivated with 5% hydrogen peroxide. Slides were blocked and incubated with primary antibodies overnight at 4 C. […] The stained slides were scanned using a SCN400F Leica scanner and images were analysed using ImageJ software.
# [5] = system: VEGF mRNA in ARPE-19 cells; experiment: Real time quantitative RT-PCR of VEGF mRNA in ARPE-19 cells; assay type: cell-based, human; settings: for VEGF mRNA level compared to untreated cells (in words): ARPE-19, 10 μM; for Relative Copy to Control / VEGF mRNA Copy/Copy million of Actine: ARPE-19, peptide 10 μM, 24 hr; for Relative Copy to Control: control = untreated normoxia (1)
# Method: as §3
# Extraction of RNA from indicated cells was performed using the NZY total RNA isolation kit (Nzytech, Lisboa, Portugal) and cDNA prepared using the NZY First-Strand cDNA Synthesis Kit (Nzytech). Primers were designed using Primer Blast software (NCBI) and obtained from Thermo-Fisher. mRNA expression levels were evaluated by qRT-PCR (QuantStudio 5 Real-Time PCR System, Applied Biosystems, Foster City, CA, USA) using SYBR green master mix (Applied Biosystems) and normalized to […]. The following primers were used in this study: β-Actin (forward: 5″-AGAAAATCTGGCACCACACC-3″ (SEQ ID NO: 32); reverse: 5″-GGGGTGTTGAAGGTCTCAAA-3″ (SEQ ID NO: 33)); VGFA (forward: 5″-TACTGCCATCCAATCGAGAC-3″ (SEQ ID NO: 34); reverse: 5″-GCA TGG TGA TGT TGG ACT-3″ (SEQ ID NO: 35)).
# as §6
# The VEGF expression regulation was also determined by […] in ARPE-19 cells treated with the peptide SEQ ID NO: 17 at 10 μM for 24 hr in normoxia and hypoxia conditions.
substance,measurement,setting,value
"SEQ ID NO: 16: cross-linked (stapled) peptide derived from SEQ ID NO: 1 (KASVM[formula (I), R19:CH3]LTISYL[formula (I), R19:CH3]VR-NH2; staple 6-13; reading uncertain; also: staple: ‑(CH2)6‑CH:CH‑(CH2)3‑)",Relative VEGF (Hypoxia/Normoxia),[1],0.88
same,Relative VEGF (Hypoxia/Normoxia),[2],1.30
same,Relative VEGF (Hypoxia/Normoxia),[3],1.01
"SEQ ID NO: 20: cross-linked (stapled) peptide derived from SEQ ID NO: 1 (LDKASV[formula (I), R19:CH3]RLTISY[formula (I), R19:CH3]RVRK-NH2; staple 7-14; reading uncertain; also: staple: ‑(CH2)6‑CH:CH‑(CH2)3‑)",Relative VEGF (Hypoxia/Normoxia),[3],0.99
"SEQ ID NO: 14: cross-linked (stapled) peptide derived from SEQ ID NO: 1 (KA[formula (I), R19:CH3]VMRLTI[formula (I), R19:CH3]YLRVR-NH2; staple 3-10; reading uncertain; also: staple: ‑(CH2)6‑CH:CH‑(CH2)3‑)",Relative VEGF (Hypoxia/Normoxia),[3],1.41
"SEQ ID NO: 19: cross-linked (stapled) peptide derived from SEQ ID NO: 1 (LDKA[formula (I), R19:CH3]VMRLTI[formula (I), R19:CH3]YLRVRK-NH2; staple 5-12; reading uncertain; also: staple: ‑(CH2)6‑CH:CH‑(CH2)3‑)",Relative VEGF (Hypoxia/Normoxia),[3],1.39
"LDKASVMRLTISYLRVRK [SEQ ID NO: 13, lineal peptide, 18 amino acids]",Effect on VEGF expression under hypoxia conditions (in words),[3],increase VEGF expression under hypoxia conditions
same,Relative VEGF (Hypoxia/Normoxia),[3],2.59
"SEQ ID NO: 31: peptide of the second aspect with linker biradical, derived from SEQ ID NO: 22 (RS[formula (I)]RSKESE[formula (I)]FYELAHQLP-NH2; staple 3-10; reading uncertain; also: staple: ‑(CH2)6‑CH:CH‑(CH2)3‑)",Relative VEGF (Hypoxia/Normoxia),[3],2.64
"SEQ ID NO: 21: cross-linked (stapled) peptide derived from SEQ ID NO: 1 (LDKASVM[formula (I), R19:CH3]LTISYL[formula (I), R19:CH3]VRK-NH2; staple 8-15; reading uncertain; also: staple: ‑(CH2)6‑CH:CH‑(CH2)3‑)",Relative VEGF (Hypoxia/Normoxia),[3],1.36
"SEQ ID NO: 30: peptide of the second aspect with linker biradical, derived from SEQ ID NO: 22 (RSRRSKESE[formula (I)]FYELAH[formula (I)]-NH2; staple 10-17; reading uncertain; also: staple: ‑(CH2)6‑CH:CH‑(CH2)3‑)",Relative VEGF (Hypoxia/Normoxia),[3],2.70
"SEQ ID NO: 17: cross-linked (stapled) peptide; differs from SEQ ID NO: 16 only in the C-terminal end (KASVM[formula (I), R19:CH3]LTISYL[formula (I), R19:CH3]VR-OH; staple 6-13; reading uncertain; also: staple: ‑(CH2)6‑CH:CH‑(CH2)3‑)",Relative VEGF (Hypoxia/Normoxia),[3],1.02
same,CD31 expression in treated tumours compared with the control (immunohistochemistry),[4],statistically significant decrease of CD31 expression
same,VEGF mRNA level compared to untreated cells (in words),[5]; hypoxia,reduced significantly the mRNA level
same,VEGF mRNA level compared to untreated cells (in words),[5]; normoxia,just a slide reduction
same,Relative Copy to Control,"[5]; hypoxia, untreated hypoxia 4.50",0.76
same,VEGF mRNA Copy/Copy million of Actine,"[5]; hypoxia, untreated hypoxia 152782",25873 Copy/Copy million of Actine
same,Relative Copy to Control,[5]; normoxia,0.93
same,VEGF mRNA Copy/Copy million of Actine,"[5]; normoxia, untreated normoxia 33918",31454 Copy/Copy million of Actine
"KASVMRLTISYLRVR [SEQ ID NO: 36, 15 amino acid lineal peptide disclosed in WO2006038208(A2), reference compound]",Effect on VEGF expression under hypoxia conditions (in words),[3],no effect in the modulation of VEGF expression
same,Relative VEGF (Hipoxia/Normoxia),[3],1.89
"KASVMRLTISYLRV [SEQ ID NO: 37, 14 amino acid lineal peptide]",Relative VEGF (Hipoxia/Normoxia),[3],2.02
"SEQ ID NO: 29: peptide of the second aspect with linker biradical, derived from SEQ ID NO: 22 (RSRRSKE[formula (I), R19:CH3]EVFYEL[formula (I), R19:CH3]HQ-NH2; staple 8-15; reading uncertain; also: staple: ‑(CH2)6‑CH:CH‑(CH2)3‑)",Relative VEGF (Hypoxia/Normoxia),[3],2.60

# Reference: patent publication US20240083943A1, “VEGF-REGULATING PEPTIDES” (IDP DISCOVERY PHARMA, S.L., priority 2020, published 2024)
